Results reported in ChEMBL document CHEMBL5244235, “Diarylpentanoids with antitumor activity: A critical review of structure-activity relationship studies” (Eur J Med Chem, 2020).
One block for each compound: values may come before it.

Experiments:
MDA-MB-231 [1] = test: Antiproliferative activity against lung metastasis variant of human MDA-MB-231 cells assessed as cell growth inhibition; format: functional, cell-based
[2] = Antiproliferative activity against human MCF-10A cells assessed as cell growth inhibition; format: toxicity, cell-based
HCC1419 = test: Antiproliferative activity against human HCC1419 cells assessed as cell growth inhibition; format: functional, cell-based
MDA-MB-231 [3] = test: Antiproliferative activity against human MDA-MB-231 cells assessed as cell growth inhibition; format: functional, cell-based
MCF7 = test: Antiproliferative activity against human MCF7 cells assessed as cell growth inhibition; format: functional, cell-based
A549 = test: Antiproliferative activity against human A549 cells assessed as cell viability by WST-1 assay; format: functional, cell-based
MDA-MB-231 [4] = test: Antiproliferative activity against human MDA-MB-231 cells assessed as cell viability by WST-1 assay; format: functional, cell-based
MG-63 = test: Antiproliferative activity against human MG-63 cells assessed as cell viability by WST-1 assay; format: functional, cell-based
MDA-MB-468 = test: Antiproliferative activity against human MDA-MB-468 cells assessed as cell viability by WST-1 assay; format: functional, cell-based
MV4-11 = test: Antiproliferative activity against human MV4-11 cells assessed as cell viability by WST-1 assay; format: functional, cell-based
NCI-H23 = test: Antiproliferative activity against human NCI-H23 cells assessed as cell viability by WST-1 assay; format: functional, cell-based
RPMI-7951 = test: Growth inhibition of human RPMI-7951 cells measured after 72 hrs by microplate reader analysis; format: functional, cell-based; conditions: RPMI-7951, time 72 hrs
MDA-MB-231 [5] = test: Growth inhibition of human MDA-MB-231 cells measured after 72 hrs by microplate reader analysis; format: functional
[6] = Cytotoxicity against mouse SVR cells assessed as cell growth inhibition by anti-angiogenisis screening assay; format: toxicity, cell-based
[7] = Cytotoxicity against mouse MS-1 cells assessed as cell growth inhibition by anti-angiogenisis screening assay; format: toxicity, cell-based
[8] = Cytotoxicity against HUVEC cells assessed as cell growth inhibition by anti-angiogenisis screening assay; format: toxicity, cell-based; conditions: human
[9] = Cytotoxicity activity against mouse SVR cells assessed as cell growth inhibition at 4 ug/ml relative to control; format: toxicity, cell-based; conditions: at 4 µg/mL
[10] = Cytotoxicity activity against mouse SVR cells assessed as cell growth inhibition at 6 ug/ml relative to control; format: toxicity, cell-based; conditions: at 6 µg/mL
B16 = test: Antiproliferative activity against mouse B16 cells assessed as cell growth inhibition; format: functional, cell-based
HeLa [11] = test: Antiproliferative activity against human HeLa cells assessed as cell growth inhibition measured after 72 hrs by MTT assay; format: functional, cell-based; conditions: Homo sapiens, HeLa, 72 h
Ca-Ski = test: Antiproliferative activity against human Ca-Ski cells assessed as cell growth inhibition measured after 72 hrs by MTT assay; format: functional, cell-based
[12] = Antiproliferative activity against human MRC9 cells assessed as cell growth inhibition measured after 72 hrs by MTT assay; format: functional, cell-based; conditions: MRC9, 72 h
HCT-116 = test: Antiproliferative activity against human HCT116 cells assessed as cell growth inhibition measured after 96 hrs; format: functional, cell-based; conditions: HCT-116, 96 h
K562 = test: Antiproliferative activity against human K562 cells assessed as cell growth inhibition measured after 24 hrs by MTT assay; format: functional, cell-based; conditions: K562, 24 h
HeLa [13] = test: Antiproliferative activity against human HeLa cells assessed as cell growth inhibition measured after 24 hrs by MTT assay; format: functional, cell-based
THP-1 = test: Antiproliferative activity against human THP-1 cells assessed as cell growth inhibition measured after 24 hrs by MTT assay; format: functional, cell-based; conditions: THP-1, 24 h
HepG2 = test: Antiproliferative activity against human HepG2 cells assessed as cell growth inhibition measured after 24 hrs by MTT assay; format: functional, cell-based; conditions: HepG2, 24 h

Compound: COc1cc(/C=C2\CN(C)C/C(=C\c3cc(OC)c(OC)c(OC)c3)C2=O)cc(OC)c1OC
IC50 (A549): 390 nM | IC50 (MDA-MB-231 [4]): 390 nM | IC50 (MG-63): 390 nM | IC50 (MDA-MB-468): 390 nM | IC50 (MV4-11): 390 nM | IC50 (NCI-H23): 390 nM

Compound: O=C1/C(=C/c2ccccc2Cl)CNC/C1=C\c1ccccc1Cl
IC50 (A549): 390 nM | IC50 (MDA-MB-231 [4]): 390 nM | IC50 (MG-63): 390 nM | IC50 (MDA-MB-468): 390 nM | IC50 (MV4-11): 390 nM | IC50 (NCI-H23): 390 nM

Compound: O=C1/C(=C/c2ccccc2Br)CNC/C1=C\c1ccccc1Br
IC50 (A549): 390 nM | IC50 (MDA-MB-231 [4]): 390 nM | IC50 (MG-63): 390 nM | IC50 (MDA-MB-468): 390 nM | IC50 (MV4-11): 390 nM | IC50 (NCI-H23): 390 nM

Compound: O=C(/C=C/c1ccccc1)/C=C/c1ccccc1
inhibition at 4 ug/ml [9]: 87.1% | inhibition at 6 ug/ml [10]: 90.4%

Compound: COc1cc(/C=C2\CNC/C(=C\c3cc(OC)cc(OC)c3)C2=O)cc(OC)c1
IC50 (B16): 200 nM

Compound: O=C(/C=C/c1c(Cl)cccc1Cl)/C=C/c1c(Cl)cccc1Cl
inhibition at 4 ug/ml [9]: 87.1% | inhibition at 6 ug/ml [10]: 90.4%

Compound: COc1cccc(/C=C2\CNC/C(=C\c3cccc(OC)c3OC)C2=O)c1OC
IC50 (A549): 390 nM | IC50 (MDA-MB-231 [4]): 390 nM | IC50 (MG-63): 390 nM | IC50 (MDA-MB-468): 390 nM | IC50 (MV4-11): 390 nM | IC50 (NCI-H23): 390 nM

Compound: COc1cc(/C=C2\CN(C(=O)C(C)C)C/C(=C\c3cc(OC)c(OC)c(OC)c3)C2=O)cc(OC)c1OC
IC50 (A549): 390 nM | IC50 (MDA-MB-231 [4]): 390 nM | IC50 (MG-63): 390 nM | IC50 (MDA-MB-468): 390 nM | IC50 (MV4-11): 390 nM | IC50 (NCI-H23): 390 nM

Compound: COc1ccc(/C=C/C(=O)/C=C/c2ccc(OC)c(OC)c2)cc1OC
IC50 (HCT-116): 1500 nM

Compound: COc1cc(/C=C/C(=O)/C=C/c2cc(OC)c(OC)c(OC)c2)cc(OC)c1OC
IC50 (HCT-116): 250 nM

Continued, in another order:

IC50 (MDA-MB-231 [1]): 530 nM | IC50 (HCC1419): 1460 nM | IC50 (MDA-MB-231 [3]): 720 nM | IC50 (MCF7): 1640 nM
Compound: CCN(CC)CCOc1ccc(C(=O)N2C/C(=C\c3ccccc3)C(=O)/C(=C/c3ccccc3)C2)cc1
IC50 [2]: 41000 nM

IC50 (MDA-MB-231 [1]): 530 nM | IC50 (HCC1419): 1460 nM | IC50 (MDA-MB-231 [3]): 720 nM | IC50 (MCF7): 1640 nM
Compound: Cc1ccc(/C=C2\CN(C(=O)c3ccc(OCCN(C)C)cc3)C/C(=C\c3ccc(C)cc3)C2=O)cc1
IC50 [2]: 41000 nM

GI50 (MDA-MB-231 [5]): 1000 nM
Compound: O=C(/C=C/c1ccc(O)cc1)/C=C/c1ccc(O)cc1
GI50 (RPMI-7951): 2300 nM | GI50 [6]: 3200 nM | GI50 [7]: 3200 nM | GI50 [8]: 3200 nM

EC50 (HeLa [11]): 8300 nM
Compound: O=C1/C(=C/c2cccc(F)c2)CCC/C1=C\c1cccc(F)c1
EC50 (Ca-Ski): 6000 nM | EC50 [12]: 16400 nM

GI50 (MDA-MB-231 [5]): 1000 nM
Compound: O=C(/C=C/c1cccc(O)c1)/C=C/c1cccc(O)c1
GI50 (RPMI-7951): 2300 nM | GI50 [6]: 3200 nM | GI50 [7]: 3200 nM | GI50 [8]: 3200 nM

IC50 (K562): < 5000 nM | IC50 (HeLa [13]): < 5000 nM | IC50 (THP-1): < 5000 nM | IC50 (HepG2): < 5000 nM
Compound: O=C1/C(=C/c2cccc(/N=C/c3ccc(O)cc3O)c2)CCC/C1=C\c1cccc(/N=C/c2ccc(O)cc2O)c1
